# According to patent US20210186947A1, “TOMM6-INTERACTING EXTRACTS AND COMPOUNDS FOR USE IN THE TREATMENT AND PROPHYLAXIS OF NERVOUS SYSTEM DISEASES, ATHEROSCLEROSIS, HEPATITIS B INFECTION AND HUMAN PAPILLOMA VIRUS (HPV) INFECTION” (ETH ZURICH, priority 2018, published 2021):
# Legend:
# [1] = test system: angiotensin II AT2 receptor (AT2R, AGTR2); experiment: AT2R protein aggregation assay in HEK cells, immunoblot; format: cell-based, human; settings: 10 microM for 72 h
# Method: Proteins were also extracted from yeast cells and HEK cells expressing the indicated protein (i.e. HBsAg or AGTR2) as described above. Neuronal cell loss and hyperphosphorylated Tau in hippocampi of 15 months-old Tg2576 mice subjected to the CUMS protocol for 3 months was determined with crude homogenates of dissected hippocampi by direct binding assay with neuron-specific [^125I]-labeled anti-NeuN antibody (MAB377, clone A60, EMD Millipore, Merck KGaA, Darmstadt, Germany) and [^125I]-labeled AT8 antibody similarly as described (AbdAlla et al., J. Biol. Chem. 284, 6554-6565 (2009)).
# In the second non-Abeta-based protein aggregation assay, different plant extracts were tested in a mammalian cell system, which analyzed the protein aggregation of the angiotensin II AT2 receptor (AT2R, AGTR2) protein in human embryonic kidney (HEK) cells. The system has physiological relevance because this cellular system is capable to reproduce AT2R protein aggregation, which also occurs in brains of AD patients and AD animal models (AbdAlla et al., J. Biol. Chem. 284, 6554-6565 (2009); AbdAlla et al., J. Biol. Chem. 284, 6566-6574 (2009)). The AT2 receptor in human embryonic kidney (HEK) cells forms stable dimers/oligomers under pro-oxidant conditions, which are resistant to urea-containing reducing SDS-PAGE (FIG. 2A, and AbdAlla et al., J. Biol. Chem. 284, 6566-6574 (2009)). […]
# [2] = test system: synaptosomal nerve-associated protein 25 (Snap25); experiment: Whole genome microarray gene expression analysis of aortic genes: Snap25; format: in vivo; settings: ApoE-/- mice, 10 mg/kg/day for 8 months
# Method: Whole genome microarray gene expression profiling was performed with aortic specimens isolated from 9-month-old ApoE−/− mice without treatment and with oral treatment for 8 months with alizarin (10 mg/kg/day), and untreated age-matched B6 control mice. Total RNA was isolated by the RNeasy Mini kit according to the protocol of the manufacturer (Qiagen). RNA purity was between 1.8 and 2 as determined by the absorbance ratio of 260/280. RNA quality and absence of signs of degradation were also controlled by RNA electrophoresis on a denaturing agarose gel by the presence of bright bands of 28S and 18S ribosomal RNA. Total RNA was processed for whole genome microarray gene expression profiling with the GeneChip One-Cycle Target Labeling System (Affymetrix) according to the protocol of the manufacturer (Affymetrix GeneChip Expression Analysis Technical Manual Rev. 5). […]
# Alzheimer's Disease (AD) is the most frequent form of dementia in the elderly. […] Atherosclerotic lesion area was assessed with oil red O-stained aortas isolated from 9-month-old ApoE−/− mice (FIG. 17A). […] The aortic expression levels of neuronal marker genes of alizarin-treated ApoE−/− mice were determined compared to untreated ApoE−/− mice and untreated B6 mice without atherosclerosis (FIG. 17D,E).
structure (smiles),measurement,setting,value
"O=C1c2ccccc2C(=O)c2c1ccc(O)c2O [Compound-1, 1,2-dihydroxyanthraquinone]",aggregation of the AT2 receptor,[1],inhibited the aggregation of the AT2 receptor
same,aortic expression level of Snap25,[2],not down-regulated and maintained at the levels of the non-transgenic B6 controls
